US20220324913A1, “ANTIGENIC NEURON SPECIFIC ENOLASE PEPTIDES FOR DIAGNOSING AND TREATING AUTISM” (THE REGENTS OF THE UNIVERSITY OF CALIFORNIA, priority 2019, published 2022)

Legend:
[1] = test system: maternal autoantibodies (plasma from mothers of ASD and TD children); experiment: ELISA of maternal plasma reactivity to recombinant NSE; type: binding, human; settings: for Reactivity observed, number of mothers: plasma 1:500
Method: Once NSE was identified as a viable antigenic candidate by WB, we evaluated a larger sample set for NSE reactivity using an ELISA method. We tested plasma from 418 mothers enrolled in the CHARGE study with at least one child with ASD (n=232) or control samples from mothers of typically developing children (TD; n=186). Microtiter plates were coated with 100 μl of NSE (Novus Biologicals, Littleton, Colo.) at 2 μg/ml in carbonate coating buffer pH 9.6, incubated overnight at 4° C., washed four times with PBST 0.05%, and blocked with 2% Super Block (Thermo Scientific, Rockford, Ill.) for 1 hour at room temperature (RT). The plasma samples were diluted 1:500 and run in duplicate. Following dilution, 100 μl of diluted sample was added to each well, incubated for 1.5 hours, washed 4×, then incubated with 1:10,000 goat anti-human IgG-HRP IgG (Kirkegaard & Perry Laboratories, Inc., Gaithersburg, Mass.) for 1 hour. The plates were then washed and detection was performed by adding 100 μl of BD optEIA liquid substrate for ELISA (BD Biosciences, San Jose, Calif.). After 4 minutes, the reaction was stopped with 50 μl of 2N HCl. The absorbance was measured at 490-450 nm using an iMark Microplate Absorbance Reader (Biorad, Hercules, Calif., USA).
For the ELISA assay, positive cutoff values for reactivity to NSE were determined using a ROC curve. The ROC curve was created by plotting the true positive rate against the false positive rate at various threshold settings. We therefore created our curve using seven positive samples (labeled as +) from mothers that have a child with ASD and were positive by WB (true positive samples) along with the test samples. By using the positive samples as the reference event, the cutoff has greater specificity (less false positives) although sacrificing some sensitivity (limit of detection). The ROC plots sensitivity versus 1−Specificity for each value creating an Area Under the Curve (AUC) that is a representation of the accuracy of the test. Youden's index was used to calculate the cutoff.
NSE was identified by mass spectrometry as a potential target of the maternal autoantibodies and, based on its critical role in neurodevelopment, we chose to further evaluate NSE as a potential MAR ASD biomarker. Recombinant NSE was used to verify maternal autoantibody reactivity first by WB followed by ELISA. […] Therefore, we utilized an approach similar to that used for the seven previously-described MAR autoantigens to probe the samples for differential epitope recognition between ASD and TD groups.

maternal autoantibodies = experiment: Western blot of recombinant proteins probed with maternal plasma; type: binding, human; settings: compared with NNE, ALDOC and CKB; plasma 1:800
Method: To test autoantibody reactivity to FMB Fraction #12 that contained proteins between 37-45 kDa, the fraction was probed with maternal plasma samples as described previously (FIG. 1D). In summary, 200 μg of protein were denatured by heating at 100° C. for 10 min in SDS buffer and separated on a 12% SDS-PAGE gel at 200V for 1 hour. Proteins were transferred to a 0.2 μm nitrocellulose membrane overnight (10V for 16 hours) at 4° C. To confirm the transfer, the membrane was stained with Ponceau dye and cut into 3 mm strips that were labeled and blocked with 1% casein buffer. Plasma samples were then diluted (1:400), added to the strips, incubated for 1.5 hours at RT followed by five washes, and incubated with 1:20,000 goat anti-human IgG-HRP for 30 minutes. After five washes, detection was performed by adding 800 μl of Super Signal substrate and strips were placed on a glass plate to be imaged using the FluoroChem 8900 imager. Images were scored as 0 if negative and 1 if positive.
The top 4 commercially available antigens identified by mass spectrometry with a 100 C.I. were selected for further evaluation. To evaluate antibody reactivity against our top hits including NSE, NNE, ALDOC, and CKB, 2 μg protein of recombinant protein (Novus Biologicals, Littleton, Colo.) were probed with diluted maternal plasma (1:800) by WB as described previously. […]

NSE: recombinant neuron specific enolase protein (Novus Biologicals), target autoantigen of maternal autoantibodies
Reactivity observed, percent of mothers ([1]; mothers that had a child with ASD): 6.2% | Reactivity observed, percent of mothers ([1]; mothers that have a typically developing child (TD)): 5% | Reactivity observed, number of mothers ([1]; of 186 mothers that have a typically developing child): 21 | Reactivity observed, number of mothers ([1]; of the 232 mothers that had a child with ASD): 26 | Maternal autoantibody reactivity against recombinant protein (maternal autoantibodies): greatest specificity
